Assays:
[1] = tested on: p-IKKα levels in L363 (NIK translocated multiple myeloma) cells; assay: Effect of compounds on p-IKKα levels in L363 cells (AlphaLISA SureFire Ultra); format: cell-based, human; details: Homo sapiens, L-363, 250 ng/ml BAFF stimulated, 10 μM MG132, 6 h, average of values obtained, read-out: Assay 2 IC50
In short: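 L363 cells were BAFF-stimulated overnight (250 ng/ml) in DMEM/0.5% BSA, then exposed to an 11-point 1:3 compound series (0.3% DMSO) with BAFF and 10 μM MG132 for 6 h at 37 °C. p-IKKα (Ser176/180) was measured by AlphaLISA SureFire Ultra. IC50 was fitted from % inhibition normalized to stimulated and unstimulated controls.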

[2] = target: recombinant human NF-kappaB-inducing kinase (NIK/MAP3K14) (Homo sapiens, UniProt Q99558); assay: Inhibition of auto-phosphorylation of recombinant human NIK/MAP3K14 activity (AlphaScreen); format: biochemical; details: GST-tagged NIK/MAP3K14 1 nM, 5 μM ATP, 2 h at 25° C.; average of values obtained
Sequence of recombinant human NF-kappaB-inducing kinase (NIK/MAP3K14) (Q99558 whole entry): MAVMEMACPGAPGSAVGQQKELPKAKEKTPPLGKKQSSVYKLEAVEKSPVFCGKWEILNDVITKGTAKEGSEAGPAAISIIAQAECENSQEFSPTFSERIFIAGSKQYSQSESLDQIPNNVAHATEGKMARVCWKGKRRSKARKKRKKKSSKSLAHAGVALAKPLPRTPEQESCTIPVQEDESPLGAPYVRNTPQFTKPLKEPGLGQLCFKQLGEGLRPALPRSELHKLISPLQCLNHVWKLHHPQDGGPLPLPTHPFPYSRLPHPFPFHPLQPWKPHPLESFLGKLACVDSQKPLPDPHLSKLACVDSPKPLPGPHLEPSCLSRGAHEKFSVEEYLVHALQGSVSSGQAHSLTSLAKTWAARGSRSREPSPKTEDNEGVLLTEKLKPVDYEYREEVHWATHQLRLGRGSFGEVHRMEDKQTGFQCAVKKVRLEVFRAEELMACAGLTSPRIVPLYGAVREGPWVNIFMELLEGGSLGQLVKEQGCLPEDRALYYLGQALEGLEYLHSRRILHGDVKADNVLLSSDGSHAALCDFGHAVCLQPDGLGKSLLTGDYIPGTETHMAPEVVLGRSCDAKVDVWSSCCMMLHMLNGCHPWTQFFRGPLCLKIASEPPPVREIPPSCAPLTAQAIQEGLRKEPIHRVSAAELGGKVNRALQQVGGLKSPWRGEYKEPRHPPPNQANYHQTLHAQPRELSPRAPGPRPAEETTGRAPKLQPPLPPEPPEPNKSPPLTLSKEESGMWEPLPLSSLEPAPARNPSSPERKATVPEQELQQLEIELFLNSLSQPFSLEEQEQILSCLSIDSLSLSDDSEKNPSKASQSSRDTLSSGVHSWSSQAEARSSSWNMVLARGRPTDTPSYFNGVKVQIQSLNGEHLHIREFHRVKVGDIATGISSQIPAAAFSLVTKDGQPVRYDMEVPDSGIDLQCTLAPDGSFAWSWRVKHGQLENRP
In short: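 GST-tagged NIK (1 nM) auto-phosphorylated for 2 h at 25 °C with 5 μM ATP in 50 mM Tris pH 7.5, 5 mM MgCl2, 0.7% DMSO. Phospho-Ser176/180 was detected by AlphaScreen using an anti-phospho-IKK antibody. IC50 came from sigmoidal fits of % inhibition versus high (full activity) and low (no ATP) controls.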

SMILES	IC50 [1] [nM]	IC50 [2] [nM]
CN1CC[C@@](O)(c2cccc(-c3cnc(-c4c[nH]c5ncccc45)n3C)c2)C1=O [Example 120, (R)-3-hydroxy-1-methyl-3-(3-(1-methyl-2-(1H-pyrrolo[2,3-b]pyridin-3-yl)-1H-imidazol-5-yl)phenyl)pyrrolidin-2-one]	> 500	> 500
CN1CC[C@@](O)(c2cccc(-c3ncc(-c4c[nH]c5ncccc45)n3C)c2)C1=O [Example 125, (R)-3-Hydroxy-1-methyl-3-(3-(1-methyl-5-(1H-pyrrolo[2,3-b]pyridin-3-yl)-1H-imidazol-2-yl)phenyl)pyrrolidin-2-one]	> 500	100 to 500
CN1CC[C@@](O)(c2cccc(-c3nc(-c4ccnc5[nH]ccc45)cs3)c2)C1=O [Example 127, (R)-3-(3-(4-(1H-Pyrrolo[2,3-b]pyridin-4-yl)thiazol-2-yl)phenyl)-3-hydroxy-1-methylpyrrolidin-2-one]	> 500	≤ 100
CN1CC[C@@](O)(c2cccc(-c3nc(-c4ccc5cnn(C)c5c4)cs3)c2)C1=O [Example 128, (R)-3-Hydroxy-1-methyl-3-(3-(4-(1-methyl-1H-indazol-6-yl)thiazol-2-yl)phenyl)pyrrolidin-2-one]	> 500	> 500
CN1CC[C@@](O)(c2cccc(-c3nc(-c4cc(N)nc5[nH]ccc45)cs3)c2)C1=O [Example 129, (R)-3-(3-(4-(6-Amino-1H-pyrrolo[2,3-b]pyridin-4-yl)thiazol-2-yl)phenyl)-3-hydroxy-1-methylpyrrolidin-2-one]	> 500	> 500
CN1CC[C@@](O)(c2cccc(-c3nc(-c4c(Cl)cnc5[nH]ccc45)cs3)c2)C1=O [Example 130, (R)-3-(3-(4-(5-Chloro-1H-pyrrolo[2,3-b]pyridin-4-yl)thiazol-2-yl)phenyl)-3-hydroxy-1-methylpyrrolidin-2-one]	> 500	> 500
CN1CC[C@@](O)(c2cccc(-c3nc(-c4cccc5[nH]ncc45)cs3)c2)C1=O [Example 131, (R)-3-(3-(4-(1H-Indazol-4-yl)thiazol-2-yl)phenyl)-3-hydroxy-1-methylpyrrolidin-2-one]	> 500	> 500
CN1CC[C@@](O)(c2cccc(-c3nc(-c4c(F)cnc5[nH]ccc45)cs3)c2)C1=O [Example 132, (R)-3-(3-(4-(5-Fluoro-1H-pyrrolo[2,3-b]pyridin-4-yl)thiazol-2-yl)phenyl)-3-hydroxy-1-methylpyrrolidin-2-one]	> 500	> 500

Reference: patent US20230416256A1, “SMALL MOLECULE INHIBITORS OF NF-kB INDUCING KINASE” (Janssen Pharmaceutica NV, priority 2020, published 2023)
